Measurements reported in publication PMC12163485 (Drug Metabolism and Disposition, 2025).

Columns and labels:
[1] = biological target: T1, human OCT1 (hOCT1) (Homo sapiens, UniProt O15245); set-up: expressed in transfected cells; empty vector control pcDNA5; method as in ref column References of Table 2 (Tzvetkov et al, 2018; Morse et al, 2020; Jensen et al, 2020; Meyer et al, 2019, 2022; Wittern et al, 2024 and own unpublished data; Elsby et al, 2017); details: literature values; References of Table 2 (Tzvetkov et al, 2018; Morse et al, 2020; Jensen et al, 2020; Meyer et al, 2019, 2022; Wittern et al, 2024 and own unpublished data; Elsby et al, 2017); cited from earlier work
T1 sequence (O15245 1-554): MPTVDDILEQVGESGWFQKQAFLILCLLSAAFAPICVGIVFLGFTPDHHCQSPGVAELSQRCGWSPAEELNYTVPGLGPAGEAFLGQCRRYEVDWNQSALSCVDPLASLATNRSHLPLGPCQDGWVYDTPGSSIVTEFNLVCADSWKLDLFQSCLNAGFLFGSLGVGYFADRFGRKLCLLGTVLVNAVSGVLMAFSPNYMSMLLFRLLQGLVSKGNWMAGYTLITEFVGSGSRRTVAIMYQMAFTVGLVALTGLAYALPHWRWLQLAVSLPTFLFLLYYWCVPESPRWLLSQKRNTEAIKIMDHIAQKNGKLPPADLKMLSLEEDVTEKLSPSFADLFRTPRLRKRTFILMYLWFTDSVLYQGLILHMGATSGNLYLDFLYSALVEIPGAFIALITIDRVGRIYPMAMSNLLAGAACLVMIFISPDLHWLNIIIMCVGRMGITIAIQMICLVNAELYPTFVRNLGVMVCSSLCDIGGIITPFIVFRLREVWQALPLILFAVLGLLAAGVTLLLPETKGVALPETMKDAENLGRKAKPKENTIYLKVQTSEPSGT

[2] = biological target: T2, OCT1 (Homo sapiens, UniProt O15245); test: Uptake of the cocktail by HEK293 cells overexpressing human OCT1
T2 sequence (O15245 1-554): T1 sequence (O15245 1-554)
Experimental: (§1) Significance was calculated using Mann–Whitney U test. n = 5–8 independent experiments.

[3] = Pharmacokinetic parameters used for estimating the potential for DDIs; format: in vivo, human
Experimental: Ka was calculated manually based on available pharmacokinetic parameters.

[4] = biological target: T2, OCT1; test: DDI risk R calculated from IC50 at human OCT1; details: R=1+fup×Iin,max/IC50, cutoff R ≥ 1.1
[5] = cited from earlier work; for cmax = Imax: dose and route as in Supplemental Table 4, ref Hardman, 2018, fenoterol Tzvetkov et al; for cmax = Imax / fraction unbound: ipratropium Zhang et al, 2023; for fraction unbound: fraction unbound in plasma, ref Hardman, 2018, Lombardo et al (2018), fenoterol Tzvetkov et al; for t1/2: ref Hardman, 2018, fenoterol Tzvetkov et al
[6] = system: OCT1; details: ref Tzvetkov et al, 2018 (fenoterol); Matthaei et al, 2016 (sumatriptan); cited from earlier work
[7] = biological target: T3, human OCTN1 (hOCTN1) (Homo sapiens, UniProt Q9H015); test: Uptake of the extended cocktail by HEK293 cells overexpressing hOCTN1; format: in vitro ADME; details: Fig. 6
T3 construct: expressed in transfected cells
T3 sequence (Q9H015 1-551): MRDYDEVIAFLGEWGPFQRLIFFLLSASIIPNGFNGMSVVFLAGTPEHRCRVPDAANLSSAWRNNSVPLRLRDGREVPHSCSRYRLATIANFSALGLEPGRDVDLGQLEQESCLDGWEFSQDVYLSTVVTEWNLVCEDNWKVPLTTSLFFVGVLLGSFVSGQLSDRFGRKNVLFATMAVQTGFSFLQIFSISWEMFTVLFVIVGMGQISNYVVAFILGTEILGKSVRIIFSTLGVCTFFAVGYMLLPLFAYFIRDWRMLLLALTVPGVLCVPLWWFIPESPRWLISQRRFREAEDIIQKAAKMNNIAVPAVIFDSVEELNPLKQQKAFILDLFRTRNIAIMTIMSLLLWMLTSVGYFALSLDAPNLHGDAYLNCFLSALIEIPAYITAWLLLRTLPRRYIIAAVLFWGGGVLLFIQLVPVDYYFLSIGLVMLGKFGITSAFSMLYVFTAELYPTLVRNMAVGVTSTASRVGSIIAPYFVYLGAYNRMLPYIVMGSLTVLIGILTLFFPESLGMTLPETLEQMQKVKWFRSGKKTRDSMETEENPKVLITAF

[8] = system: mOct1; set-up: method as in ref column References of Table 2 (Morse et al, 2020; Jensen et al, 2020; Meyer et al, 2022); details: literature values; References of Table 2 (Morse et al, 2020; Jensen et al, 2020; Meyer et al, 2022); cited from earlier work
[9] = biological target: T4, mouse OCT1 (Mus musculus, UniProt O08966); test: Uptake of the cocktail by HEK293 cells overexpressing mouse Oct1
T4 sequence (O08966 1-556): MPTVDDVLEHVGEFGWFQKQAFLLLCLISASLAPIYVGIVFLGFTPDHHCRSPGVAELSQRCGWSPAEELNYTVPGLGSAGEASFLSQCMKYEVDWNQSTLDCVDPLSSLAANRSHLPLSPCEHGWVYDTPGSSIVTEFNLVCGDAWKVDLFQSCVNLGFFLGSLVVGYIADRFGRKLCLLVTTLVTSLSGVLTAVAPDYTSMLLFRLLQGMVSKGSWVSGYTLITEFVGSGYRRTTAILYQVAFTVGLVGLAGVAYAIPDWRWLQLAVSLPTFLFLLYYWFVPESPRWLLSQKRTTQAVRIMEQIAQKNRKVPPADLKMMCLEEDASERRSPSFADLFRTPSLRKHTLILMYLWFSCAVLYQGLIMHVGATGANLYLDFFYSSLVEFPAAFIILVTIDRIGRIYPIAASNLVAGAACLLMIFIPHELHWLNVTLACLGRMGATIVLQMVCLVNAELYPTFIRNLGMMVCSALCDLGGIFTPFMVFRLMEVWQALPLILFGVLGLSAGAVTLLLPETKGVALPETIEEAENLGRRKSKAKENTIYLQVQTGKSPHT
Experimental: as §1

[10] = system: OCT1; details: read-out: inhibitory potency for metformin uptake via OCT1; substrate metformin; ref Ahlin et al, 2011; Panfen et al, 2019; cited from earlier work
[11] = substrate: CC(Cc1ccc(O)cc1)NCC(O)c1cc(O)cc(O)c1; test: cells, lysate or membranes named; details: mean ± SD, pH 7.4
[12] = substrate: O=C(O[C@H]1C[C@H]2CC[C@@H](C1)[N+]21CCCC1)C(O)(c1ccccc1)c1ccccc1; test: Transport kinetics (KM, vmax) of OCT1-mediated uptake, HEK293 cells overexpressing human OCT1; format: in vitro ADME; details: mean ± SD, pH 7.4
[13] = Iin,max=Imax+Fa×ka×D/Qh, Qh 97 L/h, Fa 1, Imax for fenoterol and ipratropium
[14] = unbound maximum inhibitor concentration at the inlet of the liver
[15] = other: hOCT1, substrate tested alone
[16] = other: hOCT1, substrate tested in cocktail

CC(Cc1ccc(O)cc1)NCC(O)c1cc(O)cc(O)c1 (stereo not shown) [Fenoterol, fenoterol]
Km [1]: 1.8 µM | transport by OCT1 ([2]; extended cocktail, Fig. 6): transported only by OCT1 | Imax, portal [3, 13]: 1.23 ng/mL | I max, portal, u [3, 14]: 0.0021 µM | DDI risk R, victim drug ipratropium [4]: 1.00 | DDI risk R, victim drug metformin [4]: 1.00 | DDI risk R, victim drug methylnaltrexone [4]: 1.00 | DDI risk R, victim drug salbutamol [4]: 1.00 | DDI risk R, victim drug sumatriptan [4]: 1.00 | DDI risk R, victim drug trospium [4]: 1.00 | DDI risk R, victim drug zolmitriptan [4]: 1.00 | cmax = Imax [5]: 1.23 ng/mL | fraction unbound [5]: 0.53 | t1/2 [5]: 1.27 h | increase in systemic exposure in individuals homozygous for OCT1 loss-of-function genetic variants [6]: 2 fold

CC(C)[N+]1(C)[C@@H]2CC[C@H]1C[C@@H](OC(=O)C(CO)c1ccccc1)C2 (stereo partly shown) [Ipratropium, ipratropium]
Imax, portal [3, 13]: 0.08 ng/mL | I max, portal, u [3, 14]: 0.0002 µM

C[N+](C)(C)[C@@H](Cc1c[nH]c(=S)[nH]1)C(=O)[O-] [L-ergothioneine]
transport by OCTN1 [7]: transported both L-carnitine and L-ergothioneine

C[N@+]1(CC2CC2)CC[C@]23c4c5ccc(O)c4O[C@H]2C(=O)CC[C@@]3(O)[C@H]1C5 [Methylnaltrexone, methylnaltrexone]
Km [1]: 15.2 µM | Km [8]: 8.61 µM

CC(C)(C)NCC(O)c1ccc(O)c(CO)c1 (stereo not shown) [Salbutamol, salbutamol]
Km [1]: 310 µM | uptake stronger in mouse than in human OCT1 ([9]; ratio mouse/human): 4.5 fold | Km [8]: 52.2 µM

COc1cc(Cc2cnc(N)nc2N)cc(OC)c1OC [Trimethoprim, trimethoprim]
IC50 [10]: […] | I max, portal, u ([3]; human, in vivo): 8.53 µM | Imax, portal ([3]; human, in vivo): 3932 ng/mL | ka ([3]; human, in vivo): 1.66 h⁻¹ | k el ([3]; human, in vivo, po): 1.92e-05 s⁻¹ | cmax = Imax [5]: 1200 ng/mL | fraction unbound [5]: 0.63 | tmax ([5]; p.o., ref Hardman, 2018): 2.00 h | t1/2 [5]: 10.00 h

COc1ccc(CCN(C)CCCC(C#N)(c2ccc(OC)c(OC)c2)C(C)C)cc1OC (stereo not shown) [Verapamil, verapamil]
Imax, portal [3, 13]: 3550 ng/mL | ka ([3]; first-order absorption rate constant, calculated manually from available pharmacokinetic parameters): 2.65 h⁻¹

CN(C)CCc1c[nH]c2ccc(C[C@H]3COC(=O)N3)cc12 [Zolmitriptan, zolmitriptan]
Km [1]: 105 µM | mouse Oct1 uptake [fold change to pcDNA5] ([9]; fold change to the negative control, n = 12): 7.6 fold change to pcDNA5 | human OCT1 uptake [fold change to pcDNA5] ([2]; cocktail, fold change to the negative control, n = 12): 6.6 fold change to pcDNA5

B1: human OCT1 (hOCT1) (Homo sapiens) (protein)
chain: T1 sequence (O15245 1-554)
notes: expressed in transfected cells; empty vector control pcDNA5
Km [11, 15]: 0.94 ± 0.24 µM | Km [11, 16]: 0.95 ± 0.38 µM | Km [12, 15]: 16.9 ± 2.46 µM | Vmax [12, 15]: 0.000647 µmol/min/mg | Km [12, 16]: 13.9 ± 1.61 µM | Vmax [12, 16]: 0.000637 µmol/min/mg
